US9605047B2, “Compositions and methods for treating hypertension” (The Brigham and Women's Hospital, Inc., priority 2012, dated 2017)
Entries after “also recorded” stand apart in the source; their conditions may differ.

Columns and labels:
[1] = biological target: T1, ETB cysteinyl thiols (region containing Cys405) (Homo sapiens, UniProt P24530); test: Western analysis to detect ETB disulfide bond formation in HPAECs; format: cell-based; details: aldosterone 10^−7 mol/L 24 h or H2O2 200 μmol/L 20 min
T1 construct: endogenous in cells; host or cells: HPAECs (Lonza)
T1 sequence (P24530 27-442): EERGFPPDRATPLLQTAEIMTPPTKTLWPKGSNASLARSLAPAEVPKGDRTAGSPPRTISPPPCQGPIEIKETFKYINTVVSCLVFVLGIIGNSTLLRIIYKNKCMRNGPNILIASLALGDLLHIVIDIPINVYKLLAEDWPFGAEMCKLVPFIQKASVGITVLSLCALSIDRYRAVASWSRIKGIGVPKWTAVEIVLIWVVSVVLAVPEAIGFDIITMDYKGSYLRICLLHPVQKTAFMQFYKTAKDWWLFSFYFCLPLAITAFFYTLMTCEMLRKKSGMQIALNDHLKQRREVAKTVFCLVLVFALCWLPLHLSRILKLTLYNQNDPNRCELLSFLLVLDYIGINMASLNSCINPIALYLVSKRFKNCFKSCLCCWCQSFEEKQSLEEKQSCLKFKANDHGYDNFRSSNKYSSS
Description: (§1) Western analysis to detect ETB disfulfide bond formation. Western analysis to detect ETB disulfide bond formation was performed as described previously.^7 Briefly, protein extracts from cells were lysed in alkylating buffer containing 0.1 M Tris-HCL, pH 6.8, 1% SDS, 100 mM iodoacetamide, and 100 mM N-ethylmaleimide, and sonicated on ice for 5 min followed by a 30-min incubation at 25° C. Alkylated proteins were then precipitated with acetone. Proteins were resuspended in 50 μl of 0.1 M Tris-HCl, pH 7.4, 1% SDS; and disulfides were reduced with 5 mM tris(2-carboxyethyl)phosphine hydrochloride (TCEP). Following a 20-min incubation at 25° C., TCEP was removed with a Micro Bio-Spin™ column 6 (Bio-Rad), and 1% SDS was added to the eluant. The cysteines previously participating in a disulfide bond, now reduced, were labeled with 1 mM polyethylene glycol-conjugated maleimide (molecular mass 10 kDa) (Fluka). After a 1-h incubation at 25° C., proteins were precipitated with acetone, resuspended in 50 μl of non-reducing SDS electrophoresis buffer, and boiled for 10 min. Protein samples were then size-fractionated electrophoretically using SDS-PAGE, and transferred to a polyvinylidene fluoride membrane. […]

[2] = tested on: rats with SU-5416/hypoxia-induced PAH; test: SU-5416/hypoxia-induced PAH, prevention study with eplerenone; format: in vivo, rat; details: SU-5416 (20 mg/kg s.c.) plus chronic hypoxia 21 days vs normal rats; n=5
[3] = tested on: CYP11B2 (aldosterone synthase); test: CYP11B2 protein expression in HPAECs by Western analysis; format: cell-based, human; details: 24 h, n=3
Description: (§2) Cell culture and treatments. Human pulmonary artery endothelial cells (HPAECs) (Lonza) (male donors) were grown to confluence using phenol-free EGM-2 medium supplemented with 5% fetal bovine serum at 37° C., 5% CO2. Cells were passaged twice-weekly using 0.5% trypsin/EDTA, and experiments were performed on cells from passages 4-10. Aldosterone (Steraloids) and ET-1 (1-100 nM) (Sigma-Aldrich) were dissolved in dimethylsufloxide ([…]) and deoxygenated water, respectively, which served as vehicle controls. Cells were treated with aldosterone (10^−−10^−7 mol/L) for 24 h and in selected experiments co-incubated with the mineralocorticoid receptor inhibitor spironolactone (10 μM/l) (Sigma-Aldrich).
(§3) Immunoblotting. Proteins were size fractionated electrophoretically using SDS-PAGE and transferred to polyvinylidene fluoride membranes. The membranes were incubated with anti-ETA (Santa Cruz Biotechnology), anti-ETB (Santa Cruz Biotechnology), anti-NOX4 (Santa Cruz Biotechnology), anti-p22P^phox (Santa Cruz), anti-eNOS (Cell Signaling), anti-PGC-1α (Santa Cruz Biotechnology), and anti-SF (Santa Cruz Biotechnology) antibodies overnight at 4° C. and visualized using the ECL detection system (Amersham Biosciences). In experiments to assess ETA expression, purified ETA protein (Novus Biological) was loaded to serve as an internal control.

[4] = tested on: HPAECs; test: Amplex Red assay of hydrogen peroxide levels in HPAECs; format: cell-based, human; details: ET-1 10 nM, HPAECs; p=0.43, n=4
Description: Human pulmonary artery endothelial cells (HPAECs) (Lonza) (male donors) were grown to confluence using phenol-free EGM-2 medium supplemented with 5% fetal bovine serum at 37° C., 5% CO2. Cells were passaged twice-weekly using 0.5% trypsin/EDTA, and experiments were performed on cells from passages 4-10. Aldosterone (Steraloids) and ET-1 (1-100 nM) (Sigma-Aldrich) were dissolved in dimethylsufloxide (10 nmol/L) and deoxygenated water, respectively, which served as vehicle controls. Cells were treated with aldosterone (10^−−10^−7 mol/L) for 24 h and in selected experiments co-incubated with the mineralocorticoid receptor inhibitor spironolactone (10 μM/l) (Sigma-Aldrich).

[5] = tested on: eNOS; test: eNOS activity ([14C] arginine, NOS activity kit) in HPAECs; format: cell-based, human; details: ET-1 (10 nM) stimulated HPAECs, without or with aldosterone; n=3
Description: eNOS activity. eNOS activity was measured using the NOS activity kit (Cayman) according to the manufacturer's instructions with some modifications. Cells were washed with PBS containing 1 mM EDTA, transferred to a microcentrifuge tube, and centrifuged at 14,000×g at 4° C. for 2 min. The supernatant was decanted and homogenization buffer (250 mM Tris-HCl, pH 7.4, 6 μM BH4, 2 μM flavin adenine dinucleotide, and 2 μM flavin adenine mononucleotide) was added to the cell pellets. […] The samples were then centrifuged at 14,000×g for 30 seconds and radioactivity of the eluant was quantified in a liquid scintillation counter (Beckman-Coulter).

[6] = tested on: CYP11B2 promoter; test: Chromatin immunoprecipitation assay, CYP11B2 promoter; format: cell-based, human; details: ET-1 10 nM, 24 h; vs V 16.3±9.8; n=3
Description: Chromatin immunoprecipitation assay. Chromatin immunoprecipitation assays were performed using the QuikChIP assay (Imgenex) according to the manufacturer's instructions. PCR amplification was performed on the proximal region of the CYP11B2 promoter region containing the gonadotrope-specific element ^51. The primers used were: forward 5′-[…]-3′ (SEQ ID NO:2) and reverse 5′-[…]-3′ (SEQ ID NO: 3). CYP11B2 primers used for PCR were forward: 5′ […]-3′ (SEQ ID NO: 4) and reverse: 5′-[…]-3′ (SEQ ID NO:5).

[7] = tested on: PGC-1α / steroidogenesis factor-1 (SF); test: Co-immunoprecipitation of PGC-1α with SF in HPAECs; format: cell-based, human; details: ET-1 10 nM, 24 h, n=3
Description: Co-immunoprecipitation of proteins. Cell monolayers were washed twice with ice-cold PBS and incubated on ice with RIPA buffer supplemented with various protease inhibitors (Millpore). Cells were scraped with a rubber policeman and samples were rotated at 4° C. for 15 min. Lysates were centrifuged at 14,000×g at 4° C. for 15 min and the then pre-cleared with a 50% slurry of Protein G agarose beads (Santa Cruz Biotechnology) mixed with PBS. Following removal of the beads by centrifugation, cell lysates were incubated with an anti-ETB or anti-PGC-1α antibody (Santa Cruz Biotechnology) overnight at 4° C. The immunocomplex was captured by incubating lysates with 50% Protein G agarose bead slurry at 4° C. for 1 h. Beads were collected by pulse centrifugation, resuspended in non-reducing sample buffer, and then boiled for 10 min to dissociate the immunocomplex from the beads. Western analysis was performed with an anti-SF (Santa Cruz) or anti-sulfenic acid (R—SOH) antibody (Millpore) as described above.

[8] = tested on: ETB-dependent NO. generation in HPAECs; test: NO. metabolites (NO2−, NO3−) in ET-1-stimulated HPAECs; format: cell-based, human
Description: Cell culture and treatments. Human pulmonary artery endothelial cells (HPAECs) (Lonza) (male donors) were grown to confluence using phenol-free EGM-2 medium supplemented with 5% fetal bovine serum at 37° C., 5% CO2. Cells were passaged twice-weekly using 0.5% trypsin/EDTA, and experiments were performed on cells from passages 4-10. Aldosterone (Steraloids) and ET-1 (1-100 nM) (Sigma-Aldrich) were dissolved in dimethylsufloxide (10 nmol/L) and deoxygenated water, respectively, which served as vehicle controls. Cells were treated with aldosterone (10^−−10^−7 mol/L) for 24 h and in selected experiments co-incubated with the mineralocorticoid receptor inhibitor spironolactone (10 μM/l) (Sigma-Aldrich).

[9] = tested on: HPAECs; test: Aldosterone levels in HPAEC culture medium by enzyme immunoassay; format: cell-based, human; details: 24 h, n=4
[10] = tested on: HPAECs; test: 3-Nitrotyrosine immunohistochemistry in HPAECs; format: cell-based, human; details: V 24.1±3.3, n=5
Description: 3-Nitrotyrosine immunohistochemistry. Cells grown to confluence on glass chamber slides were fixed following treatments and anti-3-nitrotyrosine immunohistochemistry (Santa Cruz Biotechnology) was performed using the 3,3′-diaminobenzidine substrate method (Vector laboratories) as described previously.^1

[11] = tested on: PGC-1α and steroidogenesis factor-1 (SF); test: PGC-1α and SF protein expression in HPAECs by Western analysis; format: cell-based, human; details: for PGC-1α protein expression levels: 24 h, n=3
Description: as §2, §3

[12] = tested on: ETB-dependent NO. synthesis in COS-7 cells; test: ETB-dependent NO2− formation in transfected COS-7 cells after H2O2; format: cell-based, monkey (African green monkey); details: COS-7 cells co-expressing WT-eNOS; H2O2 200 μmol/L 60 min, then ET-1 10 nM 10 min; n=4
Description: NO. metabolites. Nitrite (NO2^−) and nitrate (NO3^−) were measured in cell culture medium containing 2% fetal bovine serum and L-arginine (1 mmol/l) (Sigma-Aldrich) by 1(H)-naphthotriazole fluorescence (Cayman) as previously reported.^1 To measure NO2^− levels in whole lung tissue, lung specimens were harvested from rats and snap frozen in liquid nitrogen. Samples were thawed, homogenized in PBS (pH 7.4), and centrifuged at 14,000×g at 4° C. for 20 min. The supernatant was ultrafiltered using a 30 kDa molecular weight filter (Millpore), and the eluant was used to measure NO2^− levels according to manufacturer's instructions (Cayman).
Site-directed mutagenesis and transfection. cDNAs encoding wild type (WT) eNOS and WT-ETB from human were cloned into the mammalian expression vector pCMV6 (Origene). The C405A-ETB mutant was purchased from Genewiz (South Plainfield, N.J.). […] After this time, the medium was replaced with Dulbecco's Modified Eagle Medium (Gibco) supplemented with 10% FBS, and experiments were performed after 24 h.

[13] = biological target: T2, ETB (Homo sapiens, UniProt P24530); test: Disulfide bond formation of ETB in transfected COS-7 cells exposed to H2O2; format: cell-based; details: H2O2 200 μmol/L for 20 min
T2 construct: host or cells: COS-7
T2 sequence (P24530 27-442): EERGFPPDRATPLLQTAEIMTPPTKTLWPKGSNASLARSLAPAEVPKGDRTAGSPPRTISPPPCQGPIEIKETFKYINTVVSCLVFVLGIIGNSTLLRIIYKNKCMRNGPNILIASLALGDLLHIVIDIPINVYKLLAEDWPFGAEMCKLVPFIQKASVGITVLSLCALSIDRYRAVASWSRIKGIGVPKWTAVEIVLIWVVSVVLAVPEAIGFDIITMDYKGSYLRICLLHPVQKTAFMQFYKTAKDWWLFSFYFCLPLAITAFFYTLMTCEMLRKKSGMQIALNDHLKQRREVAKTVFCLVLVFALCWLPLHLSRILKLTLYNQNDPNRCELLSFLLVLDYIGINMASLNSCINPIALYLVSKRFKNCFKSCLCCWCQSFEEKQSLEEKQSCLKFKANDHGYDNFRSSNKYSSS
Description: as §1

OO [H2O2, hydrogen peroxide]
ETB disulfide bond formation (bands at 70 kDa and 90 kDa) [1]: de novo formation of one or two disulfide bonds

Cc1cc(C)c(/C=C2\C(=O)Nc3ccccc32)[nH]1 [SU-5416]
increase in plasma aldosterone levels [2]: 418%

endothelin-1 [ET-1]
CYP11B2 protein expression levels ([3]; ET-1 1 nM): 157.3±27.5 % control | CYP11B2 protein expression levels ([3]; ET-1 10 nM): 180.4±13.4 % control | CYP11B2 protein expression levels ([3]; ET-1 100 nM): 234.8±4.3 % control | H2O2 levels compared to V-treated cells [4]: no effect | eNOS activity [5]: 18.5±3.5 [^14C] L-citrulline c.p.m./μg protein | SF binding to the CYP11B2 promoter [6]: 61.6±9.3 arb. units | association between PGC-1α and SF (co-immunoprecipitation) [7]: 1260±104 arb. units | NO2^− generation ([8]; ET-1 10 nM, maximum effect at 10 min, HPAECs, vs V 29.4±3.6, n=3): 139.4±31.8 μM/μg protein | total NO. metabolite (NOx: NO2^−+NO3^−) formation ([8]; ET-1 (10 nM) stimulated HPAECs, without or with aldosterone, n=3): 157.9±12.7 μM/μg protein | NO2^−/NO3^− ratio compared to V ([8]; ET-1 alone, HPAECs): did not affect | aldosterone levels in the cell culture medium ([9]; ET-1 1 nM): 241.1±44.8 % control | aldosterone levels in the cell culture medium ([9]; ET-1 10 nM): 283.5±94.7 % control | aldosterone levels in the cell culture medium ([9]; ET-1 100 nM): 396.0±116.5 % control | levels of 3-nitrotyrosine [10]: 31.2±3.2 arb. units | PGC-1α protein expression levels ([11]; ET-1 1 nM): 176.5±52.8 % control | PGC-1α protein expression levels ([11]; ET-1 10 nM): 224.7±68.1 % control | PGC-1α protein expression levels ([11]; ET-1 100 nM): 296.7±145.8 % control | SF protein levels ([11]; ET-1, 24 h): no effect

B1: WT-ETB: wild type human ETB expressed in COS-7 cells (protein)
chain: EERGFPPDRATPLLQTAEIMTPPTKTLWPKGSNASLARSLAPAEVPKGDRTAGSPPRTISPPPCQGPIEIKETFKYINTVVSCLVFVLGIIGNSTLLRIIYKNKCMRNGPNILIASLALGDLLHIVIDIPINVYKLLAEDWPFGAEMCKLVPFIQKASVGITVLSLCALSIDRYRAVASWSRIKGIGVPKWTAVEIVLIWVVSVVLAVPEAIGFDIITMDYKGSYLRICLLHPVQKTAFMQFYKTAKDWWLFSFYFCLPLAITAFFYTLMTCEMLRKKSGMQIALNDHLKQRREVAKTVFCLVLVFALCWLPLHLSRILKLTLYNQNDPNRCELLSFLLVLDYIGINMASLNSCINPIALYLVSKRFKNCFKSCLCCWCQSFEEKQSLEEKQSCLKFKANDHGYDNFRSSNKYSSS
decrease of ET-1-stimulated NO2^− formation by H2O2 compared to V-treated cells [12]: 78.0% | disulfide bond formation of ETB [13]: formation of one or two disulfide bonds; also recorded: formation of 1 or 2 disulfide bonds

B2: C405A-ETB (protein)
chain: EERGFPPDRATPLLQTAEIMTPPTKTLWPKGSNASLARSLAPAEVPKGDRTAGSPPRTISPPPCQGPIEIKETFKYINTVVSCLVFVLGIIGNSTLLRIIYKNKCMRNGPNILIASLALGDLLHIVIDIPINVYKLLAEDWPFGAEMCKLVPFIQKASVGITVLSLCALSIDRYRAVASWSRIKGIGVPKWTAVEIVLIWVVSVVLAVPEAIGFDIITMDYKGSYLRICLLHPVQKTAFMQFYKTAKDWWLFSFYFCLPLAITAFFYTLMTCEMLRKKSGMQIALNDHLKQRREVAKTVFCLVLVFALCWLPLHLSRILKLTLYNQNDPNRCELLSFLLVLDYIGINMASLNSCINPIALYLVSKRFKNCFKSCLCCWAQSFEEKQSLEEKQSCLKFKANDHGYDNFRSSNKYSSS
decrease of ET-1-stimulated NO2^− formation by H2O2 compared to V-treated cells [12]: 45.0% | disulfide bond formation of ETB [13]: resistant to the formation of disulfide bonds; also recorded: resistant to disulfide bond formation
